Test results reported in the supplement of paper PMC10307832.

Legend:
Test in all cases: relative viability (nuclei count vs DMSO), 5 days (fraction); higher = more cells survive
Palbociclib + Crizotinib = compound: CC(=O)c1c(C)c2cnc(Nc3ccc(N4CCNCC4)cn3)nc2n(C2CCCC2)c1=O [Palbociclib] + C[C@@H](Oc1cc(-c2cnn(C3CCNCC3)c2)cnc1N)c1c(Cl)ccc(F)c1Cl [Crizotinib] (partner 1 µM)
Method in brief: (§1)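 Relative viability is defined as nuclei in treated wells over nuclei in vehicle wells. Duplicate plates were run and medians reported. Lung cancer cell lines in 1536-well plates were dosed by pin tool one day after seeding, with one drug or with a fixed anchor-drug dose plus five library-drug doses (not always all listed) in √10 steps, and nuclei were counted after 5 days.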

Palbociclib + Trametinib = compound: CC(=O)c1c(C)c2cnc(Nc3ccc(N4CCNCC4)cn3)nc2n(C2CCCC2)c1=O [Palbociclib] + CC(=O)Nc1cccc(-n2c(=O)n(C3CC3)c(=O)c3c(Nc4ccc(I)cc4F)n(C)c(=O)c(C)c32)c1 [Trametinib] (partner 0.02 µM)
Method in brief: as §1

Palbociclib + Decitabine = compound: CC(=O)c1c(C)c2cnc(Nc3ccc(N4CCNCC4)cn3)nc2n(C2CCCC2)c1=O [Palbociclib] + Nc1ncn([C@H]2C[C@H](O)[C@@H](CO)O2)c(=O)n1 [Decitabine] (partner 2 µM)
Method in brief: as §1

Palbociclib + Vorinostat = compound: CC(=O)c1c(C)c2cnc(Nc3ccc(N4CCNCC4)cn3)nc2n(C2CCCC2)c1=O [Palbociclib] + O=C(CCCCCCC(=O)Nc1ccccc1)NO [Vorinostat] (partner 1 µM)
Method in brief: as §1

Cell Line | relative viability (Palbociclib + Crizotinib; first compound 0.01 µM) | relative viability (Palbociclib + Crizotinib; first compound 0.1 µM) | relative viability (Palbociclib + Crizotinib; first compound 0.3162 µM) | relative viability (Palbociclib + Crizotinib; first compound 1 µM) | relative viability (Palbociclib + Trametinib; first compound 0.01 µM) | relative viability (Palbociclib + Trametinib; first compound 0.03162 µM) | relative viability (Palbociclib + Trametinib; first compound 0.1 µM) | relative viability (Palbociclib + Trametinib; first compound 0.3162 µM) | relative viability (Palbociclib + Trametinib; first compound 1 µM) | relative viability (Palbociclib + Decitabine; first compound 0.01 µM) | relative viability (Palbociclib + Decitabine; first compound 0.03162 µM) | relative viability (Palbociclib + Decitabine; first compound 0.1 µM) | relative viability (Palbociclib + Decitabine; first compound 0.3162 µM) | relative viability (Palbociclib + Decitabine; first compound 1 µM) | relative viability (Palbociclib + Vorinostat; first compound 0.01 µM) | relative viability (Palbociclib + Vorinostat; first compound 0.03162 µM) | relative viability (Palbociclib + Vorinostat; first compound 0.1 µM) | relative viability (Palbociclib + Vorinostat; first compound 0.3162 µM) | relative viability (Palbociclib + Vorinostat; first compound 1 µM) | relative viability (Palbociclib + Crizotinib; first compound 0.03162 µM)
NCI-H1355 | 1.13 | 0.886 | 0.875 | 0.682 | 0.433 | 0.448 | 0.422 | 0.391 | 0.363 | 0.348 | 0.379 | 0.352 | 0.351 | 0.342 | 0.619 | 0.578 | 0.548 | 0.629 | 0.465 | 
NCI-H1993 | 0.806 | 0.718 | 0.617 | 0.625 | 0.564 | 0.612 | 0.418 | 0.332 | 0.514 | 0.61 | 0.588 | 0.606 | 0.507 | 0.555 | 0.8 | 0.539 | 0.625 | 0.644 | 0.65 | 0.757
LCLC-103H | 1.04 | 0.846 | 0.995 | 0.804 | 0.7 | 0.617 | 0.686 | 0.654 | 0.547 | 0.675 | 0.76 | 0.674 | 0.679 | 0.627 | 0.743 | 0.512 | 0.62 | 0.668 | 0.445 | 1.04
NCI-H441 | 0.685 | 0.474 | 0.546 | 0.433 | 0.483 | 0.409 | 0.23 | 0.228 | 0.155 | 0.22 | 0.244 | 0.241 | 0.241 | 0.236 | 0.817 | 0.708 | 0.589 | 0.569 | 0.405 | 0.593
NCI-H1650 | 0.957 | 0.776 | 0.684 | 0.548 | 0.623 | 0.575 | 0.39 | 0.58 | 0.411 | 0.414 | 0.427 | 0.474 | 0.421 | 0.349 | 0.607 | 0.558 | 0.523 | 0.39 | 0.31 | 0.724
NCI-H650 | 0.619 | 0.446 | 0.58 | 0.475 | 1.02 |  | 0.771 | 0.915 | 0.792 | 0.305 |  | 0.31 | 0.306 | 0.354 | 0.537 |  | 0.366 | 0.359 | 0.314 | 
SK-MES-1 | 0.943 | 0.724 | 0.714 | 0.45 | 0.562 | 0.463 | 0.469 | 0.432 | 0.313 | 0.354 | 0.377 | 0.404 | 0.357 | 0.263 | 1.08 | 0.902 | 0.735 | 0.763 | 0.395 | 0.952
BEN | 0.831 | 0.719 | 0.722 | 0.475 | 1.05 | 0.949 | 0.553 | 0.873 | 0.598 | 0.692 | 0.521 | 0.596 | 0.68 | 0.422 | 0.568 | 0.542 | 0.509 | 0.58 | 0.517 | 0.701
NCI-H2170 | 1.23 | 1.11 | 1.13 | 0.785 | 0.968 | 0.838 | 0.889 | 0.882 | 0.721 | 0.503 | 0.478 | 0.446 | 0.477 | 0.45 | 0.841 | 0.515 | 0.694 | 0.675 | 0.447 | 1.07
NCI-H1915 | 0.89 | 0.879 | 0.856 | 0.796 | 0.29 |  | 0.297 | 0.289 | 0.245 | 0.277 |  | 0.254 | 0.254 | 0.26 | 0.487 |  | 0.438 | 0.525 | 0.378 | 0.863
NCI-H520 | 0.748 | 0.648 | 0.641 | 0.337 | 0.84 | 0.574 | 0.561 | 0.541 | 0.245 | 0.491 | 0.417 | 0.423 | 0.395 | 0.29 | 0.728 | 0.57 | 0.565 | 0.47 | 0.372 | 0.551
COR-L23 | 0.707 | 0.427 | 0.32 | 0.287 | 0.666 | 0.521 | 0.362 | 0.434 | 0.209 | 0.414 | 0.369 | 0.322 | 0.363 | 0.33 | 0.461 | 0.346 | 0.328 | 0.244 | 0.223 | 0.551
NCI-H2126 | 1.04 | 0.928 | 0.789 | 0.598 | 0.575 | 0.528 | 0.518 | 0.509 | 0.431 | 0.637 | 0.568 | 0.492 | 0.539 | 0.463 | 0.718 | 0.381 | 0.535 | 0.545 | 0.325 | 1.04
NCI-H1651 | 0.895 | 0.869 | 0.808 | 0.79 | 0.841 | 0.798 | 0.743 | 0.803 | 0.714 | 0.636 | 0.535 | 0.636 | 0.555 | 0.451 | 0.572 | 0.523 | 0.591 | 0.529 | 0.485 | 0.864
NCI-H727 | 0.78 | 0.45 | 0.41 | 0.404 | 0.366 | 0.336 | 0.397 | 0.387 | 0.403 | 0.866 | 0.964 | 0.895 | 0.829 | 0.669 | 1.25 | 1.03 | 1.01 | 1.01 | 0.909 | 0.642
NCI-H460 | 0.938 | 0.581 | 0.582 | 0.205 | 0.0946 | 0.116 | 0.0577 | 0.185 | 0.0348 | 0.432 | 0.415 | 0.503 | 0.46 | 0.264 | 0.669 | 0.604 | 0.454 | 0.369 | 0.115 | 0.781
